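Assay format: 96-well plates, 48-hour exposure. TGI denotes the concentration required for complete inhibition of growth.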 Where a SMILES comes first, the peptide text is derived from it. Bridges are numbered along the chain shown (N, C = ends). The star is where a group is joined. Cbz = O=C(OCc1ccccc1)*
What was measured:
Assay in all cases: NCI anticancer screen, dose series, 48 h
A549 NSCLC = test system: A549 NSCLC
DU-145 prostate = test system: DU-145 prostate
EKVX NSCLC = test system: EKVX NSCLC
HCT-15 colon = test system: HCT-15 colon
HT29 colon = test system: HT29 colon
IGROV1 ovarian = test system: IGROV1 ovarian
K-562 leukemia = test system: K-562 leukemia
MDA-MB-435 = test system: MDA-MB-435
NCI-H522 lung = test system: NCI-H522 lung
OVCAR-8 ovarian = test system: OVCAR-8 ovarian
SF-539 CNS = test system: SF-539 CNS
SK-MEL-28 melanoma = test system: SK-MEL-28 melanoma
HCC-2998 colon = test system: HCC-2998 colon

SMILES	TGI (A549 NSCLC) [µM]	TGI (DU-145 prostate) [µM]	TGI (EKVX NSCLC) [µM]	TGI (HCT-15 colon) [µM]	TGI (HT29 colon) [µM]	TGI (IGROV1 ovarian) [µM]	TGI (K-562 leukemia) [µM]	TGI (MDA-MB-435) [µM]	TGI (NCI-H522 lung) [µM]	TGI (OVCAR-8 ovarian) [µM]	TGI (SF-539 CNS) [µM]	TGI (SK-MEL-28 melanoma) [µM]	TGI (HCC-2998 colon) [µM]
Oc1nc(N/N=C/c2ccccc2)[nH]c1/C=C1\C=Nc2ccccc21	> 100	> 100	> 100	> 100	> 100	> 100	> 100	> 100	> 100	> 100	> 100	> 100	–
C/C=C/[C@H]1O[C@@](O)([C@@H](C)[C@H](O)[C@H](C)[C@H]2OC(=O)/C(OC)=C/C(C)=C/[C@@H](C)[C@@H](O)[C@@H](CC)[C@@H](O)[C@H](C)C/C(C)=C/C=C/[C@@H]2OC)C[C@H](OC2CC(O)C(OC(N)=O)C(C)O2)[C@@H]1C (some centres not stated)	17.7	21.6	20.5	12.6	1.59	20.9	0.772	14.8	7.39	21.2	–	20.4	18.6
CSc1nc(C#N)c(N)n1C	> 100	> 100	> 100	> 100	–	> 100	> 100	> 100	> 100	> 100	> 100	> 100	–
CC(=O)Nc1ccc(C(=O)N2N=C(C)/C(=C/c3cccc([N+](=O)[O-])c3)C2=O)cc1	> 100	–	> 100	–	> 100	–	> 100	–	> 100	> 100	> 100	> 100	> 100
CN(/N=N/c1nc[nH]c1C(N)=O)C1CCCCC1	> 100	–	> 100	> 100	> 100	> 100	–	–	> 100	> 100	> 100	> 100	> 100
O=C(N/N=C/c1ccc(Cl)cc1)c1cc(I)cc(I)c1O	> 100	> 100	> 100	> 100	> 100	> 100	> 100	> 100	–	> 100	> 100	> 100	–
C=CCC1(CC)C(=O)NC(=O)NC1=O	> 100	–	> 100	> 100	–	> 100	> 100	–	> 100	> 100	> 100	> 100	> 100
Oc1ccc(Cl)cc1C1=N/C(=N\C/N=C2\N=C(c3cc(Cl)ccc3O)CC(c3ccccc3)N2)NC(c2ccccc2)C1 (configuration not stated)	> 100	> 100	> 100	> 100	> 100	> 100	> 100	> 100	–	> 100	> 100	> 100	> 100
CC(C)(C)OC(=O)NCC(=O)NC1C/C(=N\O)c2sccc21 (configuration not stated)	> 100	> 100	> 100	> 100	> 100	> 100	> 100	> 100	–	> 100	> 100	> 100	> 100
CC(=O)O[C@H]1CN(S(=O)(=O)c2ccc(C)cc2)C[C@@H]1C1CCCCC1	–	> 100	52.8	> 100	84.7	40.9	> 100	70.5	–	73.2	10.5	59	> 100
COc1cccc(NC(=O)CC(=O)NNCC(=O)Nc2nnc(-c3ccc(N(CCC#N)S(=O)(=O)c4ccccc4)cc3)s2)c1	> 100	–	> 100	> 100	–	> 100	> 100	–	> 100	> 100	> 100	> 100	> 100
Cc1c(C#N)c2nnn(-c3ccccc3)c(=O)n2c1-c1ccccc1	> 45.8	8.45	> 34.5	> 100	–	> 100	0.801	–	–	> 100	–	> 100	> 39.4
COC(=O)/C=C/c1cc(OC)c2oc(-c3ccc(OC)c(OC)c3)c(C(=O)OC)c2c1	> 100	> 100	> 100	> 100	> 100	> 100	> 100	> 100	–	> 100	–	> 100	> 100
CC(=O)c1ccc(N2CCN(C3=CC(=O)c4c(O)ccc(O)c4C3=O)CC2)cc1	> 100	> 100	> 100	55.6	> 100	> 100	> 100	–	–	> 100	> 100	> 100	> 100
CC(C)=Nn1cnc(C(=N)C#N)c1N	> 100	> 100	> 100	> 100	> 100	> 100	> 100	–	> 100	> 100	> 100	> 100	> 100
CCOC(=O)c1c(NCc2ccccc2)n(-c2ccccc2)c(=S)n(-c2ccccc2)c1=O	> 100	> 100	–	> 100	> 100	> 100	> 100	> 100	> 100	> 100	–	> 100	> 100
Cc1occ2c1C(=O)CC1C2[C@@H](O)CC2C(C)(C)CCC[C@]12C (some centres not stated)	> 100	–	> 100	> 100	> 100	> 100	> 100	–	> 100	> 100	> 100	> 100	> 100
COP(=O)(OC)C(NC=O)P(=O)(OC)OC	> 100	> 100	> 100	> 100	> 100	> 100	> 100	> 100	–	> 100	> 100	> 100	> 100
N#CC12C(=O)N3C(=NC(c4ccccc4)NC3c3ccccc3)C1(C#N)C(c1ccccc1)NC1=C2CCCC1 (configuration not stated)	> 100	> 100	> 100	> 100	> 100	> 100	> 100	> 100	> 100	> 100	–	> 100	> 100

SMILES	TGI (A549 NSCLC) [µM]	TGI (DU-145 prostate) [µM]	TGI (EKVX NSCLC) [µM]	TGI (HCT-15 colon) [µM]	TGI (HT29 colon) [µM]	TGI (IGROV1 ovarian) [µM]	TGI (K-562 leukemia) [µM]	TGI (MDA-MB-435) [µM]	TGI (NCI-H522 lung) [µM]	TGI (OVCAR-8 ovarian) [µM]	TGI (SF-539 CNS) [µM]	TGI (SK-MEL-28 melanoma) [µM]	TGI (HCC-2998 colon) [µM]
C#CCSc1nc(N)c2ncn(C3OC(COP(=O)(O)O)C(O)C3O)c2n1 (configuration not stated)	> 239	–	> 239	> 239	> 239	> 239	> 239	–	> 239	> 239	> 239	> 239	> 239
COc1cc(/C=N\NC(=O)C[N+](C)(C)C)cc(OC)c1OC	> 10	> 10	–	> 10	> 10	> 10	> 10	> 10	> 10	> 10	> 10	> 10	> 10
COC(=O)C1CCCCNC(=O)CCC(NC(=O)OCc2ccccc2)C(=O)N1 (stereo not drawn) (Cbz-Glu-Lys-OMe; lactam 1-2; configuration not given here)	> 100	> 100	> 100	> 100	> 100	> 100	> 100	> 100	> 100	> 100	> 100	> 100	–
O=c1[nH]c2cc3cccnc3c(Cl)c2nc1CBr	38.8	30.4	52.1	9.94	35.9	12.3	> 100	34.8	28.5	44.4	26.4	–	–
O=C1c2ccccc2-c2nc(-c3ccccc3)cc3c2c1nc1ccccc13	52.9	29.6	88.3	28.5	25.9	23	> 100	3.51	–	66.8	–	22.9	26.7
Clc1nc(Nc2nc3ccccc3[nH]2)nc(Cl)c1Cc1ccccc1	> 100	> 100	> 100	> 100	> 100	> 100	> 100	> 100	> 100	> 100	> 100	> 100	–
COc1cc(OC)cc(-n2c(N)c(-c3nc4ccccc4n3C)c3ccc([N+](=O)[O-])cc3c2=O)c1	> 100	> 100	–	> 100	> 100	–	> 100	> 100	> 100	> 100	–	> 100	> 100
O/N=C1\CCc2nonc2\C1=N/Nc1ccccc1	> 100	> 100	> 100	> 100	> 100	> 100	> 100	> 100	–	> 100	> 100	> 100	> 100
Cc1ccc(SC[C@@]2(C(F)F)NC(=O)NC2=O)cc1	> 100	> 100	> 100	> 100	> 100	> 100	> 100	> 100	> 100	> 100	–	> 100	> 100
O=S(=O)(O)c1cc(O)c2c(O)c(N=Nc3cccc4ccccc34)c(S(=O)(=O)O)cc2c1	> 100	> 100	> 100	> 100	> 100	> 100	> 100	> 100	> 100	> 100	> 100	> 100	–
ONC1=Nc2ccccc2OCc2cc(Br)c(Br)cc2COc2ccccc2N=C1NO	> 54	29.3	47.2	> 44.4	> 43.5	> 37.7	> 44.6	> 54.3	41.9	> 47.5	–	> 57.5	31.8
CC1=C[C@@H](C)C[C@]2(C)CC[C@H](O2)[C@]23CC[C@](C)(C[C@H](O2)[C@@H]2O[C@@](C)(CC2=O)[C@@H](O)[C@H]2CC[C@@]4(CCC[C@@H](O4)[C@H](C)C(=O)O[C@H]4C[C@H]([C@]5(O)OCC[C@H](C)[C@@H]5O)O[C@H]4C=C1)O2)O3	> 10	> 10	0.128	> 10	> 10	0.0154	> 10	–	> 10	> 10	0.00503	0.0233	> 10
COC(=O)C1=C(C)N(NC(=O)c2ccccc2)C2(O)CCCC(=O)C12C (configuration not stated)	> 100	–	–	> 100	> 100	> 100	–	–	> 100	> 100	> 100	> 100	–
COc1cc(/C=C2\Cc3cc(OC)c(OC)cc3C2=O)cc(OC)c1	> 100	> 100	> 100	> 100	> 100	> 100	> 100	> 100	> 100	> 67.5	> 42.7	> 100	–
N#CC1(c2ccccc2)CCN(C2(c3ccccc3)CCCCC2)CC1	> 100	> 100	> 100	> 100	> 100	> 100	> 100	> 100	–	> 100	–	> 100	> 100
O=C1CCC2(O)C3Cc4ccc(Oc5nnnn5-c5ccccc5)c5c4C2(CCN3CC2CC2)C1O5 (configuration not stated)	> 100	> 100	> 100	> 100	68.8	> 100	> 100	37	61.6	> 100	–	30.8	–
C[C@@H]1CC[C@@H](C)[C@](C)(CCc2ccoc2)C/C=C\C=C/1C(=O)O	> 50	–	> 50	> 50	> 50	> 50	> 50	–	–	> 50	> 50	> 50	> 50
O=c1[nH]cnc2sc(=S)c3c(c12)CCC3	> 100	> 100	> 100	91.4	> 100	> 100	29.2	> 100	41.8	> 100	> 100	> 100	–

Source: PubChem BioAssay (NCI)
